# Measured values from US9719093B2, “Composition for treating cancer associated with HPV infection” (priority 2012, dated 2017).
# Test system: HeLa cell line
# Experiment: Cell senescence-associated β-galactosidase (SA-β-gal) activity
# Type: cell-based
# Conditions: treated alone
# Method: A HeLa or Caski cell line, which was seeded in a 6-well plate in 2×10^5 cells or 1.5×10^5 cells and then cultured for a day by the method as described above, was transduced with siRNA. Then, each transduced cell line was treated with cisplatin (CDDP) in a final concentration of 2.5 uM, and cultured.
# By using the cell senescence assay kit (BioVision, USA), cells were washed with PBS and treated with SA-β-gal staining solution for 12 hours at 37. Cells stained in blue were observed by using a general optical microscope with the magnification of 100 to 200 times.
# SA β-Gal activity of a HeLA or Caski cell line, which was treated by the method as described above, was measured.
smiles,measurement,value
N.N.[Cl][Pt][Cl] [cisplatin],SA β-Gal activity (staining),cells were stained in blue
